The subject of test [1] is ALK wt-TEL Ba/F3 cells. Nature of the test: Anti-proliferation assay (CTG), ALK wt-TEL Ba/F3. The class given is cell-based. The following applies: Mus musculus, BaF3. How it is done:
(§1) ALK wt-TEL, ALK L1196M-TEL transformed Ba/F3 and H2228 cell lines were cultured in RPMI1640 (Welgene, # LM011-01). […] Parental Ba/F3 cells were cultured in RPMI1640 media supplemented with 10% foetal bovine serum and 1% penicillin/streptomycin solution in the presence of IL-3. The cells were maintained in a humidified atmosphere containing 5% CO2 at 37 °C.
(§2) Cells (ALK wt-TEL, ALK L1196M-TEL and Parental Ba/F3: 1 × 10^4, H2228: 5 × 10^3) were plated in 96 well tissue culture plates. Each compound was added to each well at 10 dose points of three-fold serial dilution in DMSO. After treatment with each compound for 72 h, CTG assay solution (Promega, # G7572) was added to each well.

In another test the target is c-Met (Homo sapiens, UniProt P08581). Description: Biochemical kinase assay, c-Met. As to the method:
(§3) Biochemical kinase assay was performed by methods previously reported. Kinase reactions of all test compounds except 10g were carried out at 10 µM ATP. Kinase reaction of 10g was performed at three different concentrations of ATP (10/50/100 µM).

In the next test the target is ALK-C1156Y (Homo sapiens, UniProt Q9UM73, C1156Y). Description: Radiometric biochemical kinase assay, ALK-C1156Y. As to the method:
as §3

For the next test, the system named is Parental Ba/F3 cells. Nature of the test: Anti-proliferation assay (CTG), parental Ba/F3. In kind it is cell-based. The following applies: Mus musculus, BaF3, 72 h, with IL-3, mean ± SD of three independent experiments, read-out: GI50 Ba/F3 cell lines Parental. As to the method: as §1, §2
The test system of test [2] is ALK wt-TEL Ba/F3 cells. Nature of the test: Apoptosis analysis (annexin V-FITC/PI, FACS), ALK wt-TEL Ba/F3. The class given is cell-based. The following applies: ALK wt-TEL Ba/F3, 24 h, in words. As to the method: After 24–48 h following compound treatment, cells were harvested and stained with annexin V (1:500 diluted in annexin V buffer) for 30 min and PI (1:200) solution for 30 min. 1 × 10^6 cells were analysed using flow cytometric analysis. For the cell cycle arrest analysis, cells were harvested by trypsinisation and fixed with 70% ethanol overnight at −20 °C. The next day, cells were harvested and washed with cold DPBS at 500 × g.

Test [3] concerns cleaved PARP and cleaved caspase-3 in ALK wt-TEL and ALK L1196M-TEL Ba/F3 cells. Nature of the test: Western blot of apoptosis markers. The class given is cell-based. The settings on record: 36 h, in words. How it is done: Cells were harvested and lysed using IP buffer containing 50 mM HEPES (pH 7.4), 1% Triton X-100, 2 mM EDTA, 150 mM NaCl, 2.5 mM NaF, 5 mM Na3VO4, protease inhibitor cocktail tablet (Roche, # 11–878-580–001). The protein concentration was determined by Bradford assay. Proteins were separated using SDS-PAGE and transferred onto NC membrane. The membranes were blocked using 5% skim milk in TBS-T buffer. The rabbit polyclonal antibody against phospho-ALK (Tyr1604, # 3341), phospho-ERK1/2 (Thr202/Tyr204, # 8544), phospho- PLC-gamma (Tyr783, # 14008), phospho-STAT3 (Tyr705, # 4074) and cleaved caspase3 (# 9661) were purchased from Cell Signalling Technologies, and PARP1/2 (H-250, # sc-7150) and anti-β-actin (# sc-47778) antibody was obtained from Santa Cruz Biotechnology. All primary antibodies were diluted in TBS-T at 1:1000. Each primary antibody was incubated overnight at 4 °C, followed by the secondary antibody treatment for 1 h at room temperature. Secondary antibodies were purchased from genDEPOT. Proteins were detected using ECL substrate, and then exposed to X-ray film.
(In general: In western blotting, separated proteins are transferred to a membrane and probed.)

For the next test, the target named is ROS1 (Homo sapiens, UniProt P08922). Description: Biochemical kinase assay, ROS1. How it is done: as §3

Read-outs that look alike come from different tables or passages of the source.

Sequence of c-Met (P08581 25-1390): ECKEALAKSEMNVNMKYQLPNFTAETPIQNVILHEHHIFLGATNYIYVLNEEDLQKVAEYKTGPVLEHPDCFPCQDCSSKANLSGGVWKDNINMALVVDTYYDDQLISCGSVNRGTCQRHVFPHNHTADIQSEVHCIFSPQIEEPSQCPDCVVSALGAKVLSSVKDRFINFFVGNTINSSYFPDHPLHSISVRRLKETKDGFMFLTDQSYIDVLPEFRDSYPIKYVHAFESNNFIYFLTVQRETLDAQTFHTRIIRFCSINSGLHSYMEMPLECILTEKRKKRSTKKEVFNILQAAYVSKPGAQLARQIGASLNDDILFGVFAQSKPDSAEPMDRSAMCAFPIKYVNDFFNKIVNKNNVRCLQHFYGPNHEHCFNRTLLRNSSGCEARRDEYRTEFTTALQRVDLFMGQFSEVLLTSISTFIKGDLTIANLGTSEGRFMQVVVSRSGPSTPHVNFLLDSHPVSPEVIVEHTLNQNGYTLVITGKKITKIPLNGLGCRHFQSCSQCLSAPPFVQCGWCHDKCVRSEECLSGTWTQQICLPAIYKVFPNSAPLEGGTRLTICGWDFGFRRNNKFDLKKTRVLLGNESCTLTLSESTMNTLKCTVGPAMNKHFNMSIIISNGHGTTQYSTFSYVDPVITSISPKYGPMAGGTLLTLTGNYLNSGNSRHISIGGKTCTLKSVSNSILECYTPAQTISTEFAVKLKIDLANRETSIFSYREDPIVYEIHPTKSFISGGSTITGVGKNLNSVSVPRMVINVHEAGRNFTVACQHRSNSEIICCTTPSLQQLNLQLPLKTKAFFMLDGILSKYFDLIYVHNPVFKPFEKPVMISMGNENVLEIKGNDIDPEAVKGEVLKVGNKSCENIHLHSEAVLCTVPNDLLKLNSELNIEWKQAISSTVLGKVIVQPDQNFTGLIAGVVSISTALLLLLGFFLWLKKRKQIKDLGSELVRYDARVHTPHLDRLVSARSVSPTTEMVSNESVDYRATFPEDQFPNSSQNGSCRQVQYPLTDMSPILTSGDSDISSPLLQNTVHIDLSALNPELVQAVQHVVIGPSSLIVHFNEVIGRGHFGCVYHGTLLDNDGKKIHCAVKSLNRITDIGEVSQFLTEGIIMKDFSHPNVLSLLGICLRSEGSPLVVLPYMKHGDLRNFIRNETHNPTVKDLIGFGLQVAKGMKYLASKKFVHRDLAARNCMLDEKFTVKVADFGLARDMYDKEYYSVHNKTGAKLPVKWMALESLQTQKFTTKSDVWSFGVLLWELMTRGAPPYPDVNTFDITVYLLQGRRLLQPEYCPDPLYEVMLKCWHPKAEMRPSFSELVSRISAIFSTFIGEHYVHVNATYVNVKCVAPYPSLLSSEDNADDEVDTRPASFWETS
Sequence of ALK-C1156Y (Q9UM73 19-1620 C1156Y): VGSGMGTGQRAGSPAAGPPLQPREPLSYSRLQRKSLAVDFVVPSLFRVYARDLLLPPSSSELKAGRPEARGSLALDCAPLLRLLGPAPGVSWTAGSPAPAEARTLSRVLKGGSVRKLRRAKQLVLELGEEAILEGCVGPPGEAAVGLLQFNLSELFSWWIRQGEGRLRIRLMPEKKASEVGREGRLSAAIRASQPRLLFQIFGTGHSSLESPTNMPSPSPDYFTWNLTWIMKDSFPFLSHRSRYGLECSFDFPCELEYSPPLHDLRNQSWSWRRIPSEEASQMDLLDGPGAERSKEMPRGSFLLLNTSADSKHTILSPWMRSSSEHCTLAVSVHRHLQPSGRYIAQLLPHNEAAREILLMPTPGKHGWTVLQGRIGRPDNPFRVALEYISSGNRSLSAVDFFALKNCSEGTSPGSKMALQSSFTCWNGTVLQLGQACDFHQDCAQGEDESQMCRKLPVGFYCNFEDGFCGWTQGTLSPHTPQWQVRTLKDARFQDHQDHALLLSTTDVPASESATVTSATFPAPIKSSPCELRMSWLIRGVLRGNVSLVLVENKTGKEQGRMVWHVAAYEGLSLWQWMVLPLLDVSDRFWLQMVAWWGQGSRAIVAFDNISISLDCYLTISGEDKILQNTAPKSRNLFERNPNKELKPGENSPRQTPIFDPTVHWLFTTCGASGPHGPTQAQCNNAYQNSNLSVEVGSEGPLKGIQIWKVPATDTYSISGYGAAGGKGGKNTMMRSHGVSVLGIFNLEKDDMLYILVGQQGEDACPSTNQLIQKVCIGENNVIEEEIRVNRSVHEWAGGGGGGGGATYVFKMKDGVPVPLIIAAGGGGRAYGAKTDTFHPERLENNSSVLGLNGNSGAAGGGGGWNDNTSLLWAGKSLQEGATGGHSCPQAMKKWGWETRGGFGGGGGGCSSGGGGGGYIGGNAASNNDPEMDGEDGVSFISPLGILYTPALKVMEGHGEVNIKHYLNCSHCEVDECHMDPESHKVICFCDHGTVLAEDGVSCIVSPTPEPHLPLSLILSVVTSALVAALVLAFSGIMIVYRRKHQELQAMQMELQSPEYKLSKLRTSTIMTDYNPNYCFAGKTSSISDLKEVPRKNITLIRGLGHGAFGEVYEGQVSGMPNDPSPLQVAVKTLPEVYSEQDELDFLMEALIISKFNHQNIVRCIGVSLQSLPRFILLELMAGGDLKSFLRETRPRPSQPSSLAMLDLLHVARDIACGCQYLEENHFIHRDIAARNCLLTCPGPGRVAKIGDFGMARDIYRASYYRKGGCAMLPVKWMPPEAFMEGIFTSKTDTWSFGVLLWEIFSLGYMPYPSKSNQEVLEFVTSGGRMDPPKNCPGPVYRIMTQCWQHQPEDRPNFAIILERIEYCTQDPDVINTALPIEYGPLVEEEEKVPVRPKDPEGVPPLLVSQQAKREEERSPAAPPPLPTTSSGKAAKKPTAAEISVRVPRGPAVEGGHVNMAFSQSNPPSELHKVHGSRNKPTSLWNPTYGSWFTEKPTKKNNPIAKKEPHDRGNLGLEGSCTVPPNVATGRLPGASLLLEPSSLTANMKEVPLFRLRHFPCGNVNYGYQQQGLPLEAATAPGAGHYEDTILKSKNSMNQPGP

Consider `CN1CCN(c2ccc(C(=O)Nc3n[nH]c4ncc(S(=O)(=O)c5cccc(F)c5)cc34)cc2)CC1` [10g, N-(5-((3-Fluorophenyl)sulfonyl)-1H-pyrazolo[3,4-b]pyridin-3-yl)-4–(4-methylpiperazin-1-yl)benzamide], for which the GI50 in the test on ALK wt-TEL Ba/F3 cells [1] (72 h, CTG, mean ± SD of three independent experiments, read-out: GI50 Ba/F3 cell lines ALK wt-TEL) is 205 ± 60 nM; in the test on ALK wt-TEL Ba/F3 cells [1] (stated in text for both ALK-driven Ba/F3 lines (ALK wt-TEL and ALK L1196M-TEL), read-out: GI50 ALK-driven Ba/F3 cells), under 205 nM; in the test on Parental Ba/F3 cells, 3500 ± 1130 nM. On c-Met (ALK-wt vs c-Met IC50), the “selectivity, more potent against ALK-wt than c-Met” value is recorded as “over 7000 fold”. Also, the half-maximal inhibitory concentration (IC50) (as a rule, the point on the concentration scale where inhibition reaches its midpoint) against c-Met (biochemical kinase assay) is 3780 nM; against ALK-C1156Y it was 1.81 nM; against ROS1, under 1 nM. The “number of apoptotic cells (FACS)” value in the test with ALK wt-TEL Ba/F3 cells [2] is reported as “increases the number of apoptotic cells in a dose-dependent manner”. In addition, the “levels of cleaved PARP and cleaved caspase-3 (western blot)” value in test [3] is “increases in the levels of cleaved PARP and cleaved caspase-3”.

For the origin of these results see publication PMC6713165, “Identification of 1H-pyrazolo[3,4-b]pyridine derivatives as potent ALK-L1196M inhibitors” (Journal of Enzyme Inhibition and Medicinal Chemistry, 2019).
